In US20230148226A1, “COMPOSITIONS OF STABLE FORMULATIONS OF VARENICLINE SALT OR BASE FORM WITH CONTROL ON NITROSO IMPURITIES” (The Texas A&M University System, priority 2021, published 2023):

Test: N-Nitroso-varenicline content in individual component (LCMS)
Assay type: physicochemical
Details: not given
Description: Liquid chromatography—mass spectrometry (LCMS) method development for NVC. Ultra-pressure liquid chromatography (UPLC) was used to detect NVC in samples. An ACQUITY™ UPLC™ H-Class PLUS System was utilized with the following configuration. The needle was washed with 80:20 methanol:water and the sample temperature was 10° C. The injection volume was 25 μL and a WATERS™ Acquity UPLC BEH Phenyl 1.7 μm 2.1×100 mm column was used having a column temperature of 30° C. Mobile phase A was 0.1% formic acid in water, and mobile phase B was acetonitrile. A 0.5 mL/min flow rate was utilized. Table 1 and Table 2, shown below, illustrate gradient method parameters and LCMS method validation for NVC, respectively.
Screening excipients for varenicline. Excipients were screened to determine which excipients were promoting nitroso impurities. Varenicline and excipients were physically mixed in 1:1 weight ratio and exposed to 40° C./75% RH for 4 weeks (Table 3 and Table 4).

| Compound | N-Nitroso-varenicline |
| --- | --- |
| 7,8,9,10-tetrahydro-6,10-methano-6H-pyrazino(2,3-h)(3)benzazepinex [Varenicline Tartrate, reference compound] | 0 ng |
| O.OC[C@H]1O[C@@H](O[C@H]2[C@H](O)[C@@H](O)C(O)O[C@@H]2CO)[C@H](O)[C@@H](O)[C@H]1O (stereo partly drawn) [Lactose Monohydrate] | 0 ng |
| Magnesium Stearate | 0 ng |

Test: not given
Details: FDA recommended limit; cited from earlier work

| Compound | Acceptable daily intake limit (FDA) |
| --- | --- |
| CCN(CC)N=O [NDEA, N-nitrosodiethylamine] | 26.5 ng/day |
| CC(C)N(N=O)C(C)C [NDIPA, N-nitrosodiisopropylamine] | 26.5 ng/day |
| CN(C)N=O [NDMA, N-nitrosodimethylamine] | 96 ng/day |
| CCN(N=O)C(C)C [NIPEA, N-nitrosoisopropylethyl amine] | 26.5 ng/day |
| CN(CCCC(=O)O)N=O [NMBA, N-nitroso-N-methyl-4-aminobutanoic acid] | 96 ng/day |
| O=NN1CC2CC(C1)c1cc3nccnc3cc12 [NVC, N-nitroso-varenicline] | 37 ng/day |
